This passage reports mortality and melting point results from patent publication US20220386609A1, “META-DIAMIDE INSECTICIDES” (FMC Corporation, priority 2019, published 2022).

The subject of data set [1] is potato leafhopper (Empoasca fabae (Harris)). Put plainly: Test D: control of potato leafhopper through contact and/or systemic means. It counts as in vivo. To be noted: 144 h, Soleil bean plant, adults, 6 days; for mortality at 250 ppm: tested at 250 ppm; for mortality at 50 ppm: tested at 50 ppm. The procedure:
(§1) Test compounds were formulated using a solution containing 10% acetone, 90% water and 300 ppm Activator 90® non-ionic surfactant (Loveland Products, Loveland, Colo., USA). The formulated compounds were applied in 1 mL of liquid through an atomizer nozzle positioned 1.27 cm (0.5 inches) above the top of each test unit. Test compounds were sprayed at the rates indicated, and each test was replicated three times.
For evaluating control of potato leafhopper (Empoasca fabae (Harris)) through contact and/or systemic means, the test unit consisted of a small open container with a 5-6-day-old Soleil bean plant (primary leaves emerged) inside. White sand was added to the top of the soil, and one of the primary leaves was excised prior to application of the test compound.
Test compounds were formulated and sprayed at 250 and/or 50 ppm. After spraying of the formulated test compound, the test units were allowed to dry for 1 hour before they were post-infested with 5 potato leafhoppers (18-to-21-day-old adults). A black, screened cap was placed on the top of the test unit, and the test units were held for 6 days in a growth chamber at 20° C. and 70% relative humidity. Each test unit was then visually assessed for insect mortality.

Data set [2] deals with cotton melon aphid (Aphis gossypii (Glover)). Nature of the data set: Test F: control of cotton melon aphid through contact and/or systemic means. It counts as in vivo. To be noted: 144 h, tested at 250 ppm, okra plant, 6 days. The procedure:
as §1
[…] This was pre-infested with 30-40 insects on a piece of leaf according to the cut-leaf method, and the soil of the test unit was covered with a layer of sand.
Test compounds were formulated and sprayed at 250 and/or 50 ppm. After spraying, the test units were maintained in a growth chamber for 6 days at 19° C. and 70% relative humidity. Each test unit was then visually assessed for insect mortality.

Bounds are passed on as bounds.

As for `O=C(CC(c1cccc(C(F)(F)F)c1)C(F)(F)F)Nc1ccc(Cl)c(C(=O)Nc2ccc(F)cc2F)c1` (stereo not drawn) [Compound 5, N-[4-chloro-3-[[(2,4-difluorophenyl)amino]carbonyl]phenyl]-β,3-bis(trifluoromethyl)benzenepropanamide], the mortality – broadly, the percentage killed – at 250 ppm in data set [1] was not below 80%. In data set [1], `O=C(CC(c1ccc(F)c(Cl)c1)C(F)(F)F)Nc1ccc(Cl)c(C(=O)Nc2ccc(F)cc2F)c1` (stereo not drawn) [Compound 115, 3-chloro-N-[4-chloro-3-[[(2,4-difluorophenyl)amino]carbonyl]phenyl]-4-fluoro-β-(trifluoromethyl)benzenepropanamide] gave a mortality at 50 ppm not below 80%.

Turning to `O=C(CC(c1ccc(Cl)c(Cl)c1)C(F)(F)F)Nc1ccc(Cl)c(C(=O)Nc2ccc(F)cc2)c1` (stereo not drawn) [Compound 1, 3,4-dichloro-N-[4-chloro-3-[[(4-fluorophenyl)amino]carbonyl]phenyl]-β-(trifluoro-methyl)benzenepropanamide], the mortality at 250 ppm in data set [1] is not below 80%.

With `O=C(CC(c1ccc(Cl)c(Cl)c1)C(F)(F)F)Nc1ccc(Cl)c(C(=O)Nc2ccc(F)cc2F)c1` (stereo not drawn) [Compound 52, 3,4-dichloro-N-[4-chloro-3-[[(2,4-difluorophenyl)amino]carbonyl]phenyl]-β-(trifluoro-methyl)benzenepropanamide], in data set [1], the mortality at 50 ppm is not below 80% and the mortality at 250 ppm is not below 80%. The mortality at 250 ppm in data set [2] was not below 80%. In data set [1], `O=C(CC(c1cc(Cl)cc(Cl)c1)C(F)(F)F)Nc1ccc(Cl)c(C(=O)Nc2ccc(F)cc2F)c1` (stereo not drawn) [Compound 60, 3,5-dichloro-N-[4-chloro-3-[[(2,4-difluorophenyl)amino]carbonyl]phenyl]-β-(trifluoro-methyl)benzenepropanamide] had a mortality at 50 ppm not below 80% and a mortality at 250 ppm not below 80%. As to `O=C(CC(c1cccc(C(F)(F)F)c1)C(F)(F)F)Nc1ccc(Cl)c(C(=O)NCc2ccc(F)cc2F)c1` (stereo not drawn) [Compound 148, N-[4-chloro-3-[[(2,4-difluorophenyl)methylamino]carbonyl]phenyl]-β,3-bis(trifluoromethyl)benzenepropanamide], the melting point (as a rule, the temperature of the solid-liquid transition) lay within 96 to 99 °C. Compound `O=C(C[C@H](c1cccc(C(F)(F)F)c1)C(F)(F)F)Nc1ccc(Cl)c(C(=O)Nc2ccc(F)cc2F)c1` [Compound 103, (βR)—N-[4-chloro-3-[[(2,4-difluorophenyl)amino]carbonyl]phenyl]-β,3-bis(trisfluoromethyl)benzenepropanamide] displayed a mortality at 50 ppm in data set [1] not below 80%.
